Experimental data taken from patent US20190282558A1, “Methods of Treating Zika Virus Infection” (Emergent Virology LLC, priority 2016, published 2019).
Read-outs that look alike come from different tables or passages of the source.

Experiments:
Format in all cases: cell-based
[1] = tested on: Zika virus, PR ABC strain (ZIKV, PR2015); assay: Yield reduction assay followed by plaque assay in Vero cells, ZIKV PR2015; details: 120 h, read-out: ZIKV, PR2015 IC50
Experimental: (§1) The iminosugar compounds set forth in Table 4, below, were evaluated for antiviral activity against Zika virus, FSS 13025 strain (ZIKV, Cambodia 2010) and PR ABC strain (ZIKV, PR2015) in an yield reduction assay followed by a plaque assay.
In the yield reduction assay, Vero cells were seeded in 24-well plates and incubated overnight. The next day, serial dilutions of a given compound were prepared at 200 μM, 100 μM, 20 μM, 4 μM, 0.8 μM, 0.16 μM, 0.03 μM, and 0.01 μM. Growth medium was removed from the cells and the serial dilutions of the given compound were added in duplicate for one hour. Zika virus, PR ABC strain (ZIKV, PR2015) was added at a multiplicity of infection (MOI) of 0.01 for one hour. Growth medium was added to 1 mL and the cells were incubated for 5 days. Thereafter, cell supernatants were harvested, cleared of cell debris by centrifugation, and stored at −80° C. until further analysis for viral content in a plaque assay.
Plaque assays were performed by seeding Vero cells in 24-well plates and allowing the cells to adhere overnight. The next day each of the harvested supernatants from the yield-reduction assay were serially diluted 10-fold, growth medium was removed from the cells, and the adhered cells were infected with the dilutions of the supernatants for 1 h. The cells were incubated with 0.8% carboxymethyl cellulose (CMC) for 3 days. At the end of the incubation, CMC overlay was removed, and the cells were permeabilized with an 80%/20% (V/V) mixture of ethanol and methanol for 10 min at −20° C. Plaques were visualized by performing an immunostaining assay with monoclonal 4G2 (ATCC) which was detected by HRP-conjugated goat anti-mouse antibody and visualized using HRP-conjugated goat anti-mouse polyclonal antibodies. Relative inhibition was calculated using IDBS XLFIT analysis program.
(§2) The duplicate titers for virus-only (vehicle control) were averaged and used as 0% inhibition. Efficacy data for the compounds were reported as the mean of the duplicates, including the standard deviation (SD) and coefficient of variation (% CV). FIGS. 2A, 2B, 3A, 3B, 4A, 4B, 5A, 5B, 6A, 6B, 7A, 7B, 8A, 8B, 9A, 9B, 10A, 10B, 11A, 11B, 12A, 12B, 13A, 13B, 14A, 14B, and 15 show the in vitro inhibitory effect of the iminosugar compounds against Zika virus, FSS 13025 strain, as set forth in Table 3 below.

[2] = In vitro cell cytotoxicity (CellTiter-Glo) in Vero cells; details: African green monkey, 3-5 days, max concentration 500 or 1000 μM, * = average of two values
[3] = tested on: Zika virus, FSS 13025 strain (ZIKV, Cambodia 2010); assay: Yield reduction assay followed by plaque assay in Vero cells, ZIKV Cambodia 2010; details: for IC50: Zika virus, 96 h, read-out: ZIKV, Cambodian 2010 IC50; for IC50 (summary in words): summary of Table 3
Experimental: as §1
In the yield reduction assay, Vero cells were seeded in 24-well plates and incubated overnight. The next day, serial dilutions of a given compound were prepared at 300 μM, 100 μM, 30 μM, 10 μM, and 3.0 μM. Growth medium was removed from the cells and the serial dilutions of the given compound were added in duplicate for one hour. Zika virus, FSS 13025 strain (ZIKV, Cambodia 2010) was added at a multiplicity of infection (MOI) of 0.01 for one hour. Growth medium was added to 1 mL and the cells were incubated for 4 days. Thereafter, cell supernatants were harvested, cleared of cell debris by centrifugation, and stored at −80° C. until further analysis for viral content in a plaque assay.
Plaque assays were performed by seeding Vero cells in 24-well plates and allowing the cells to adhere overnight. The next day each of the harvested supernatants from the yield-reduction assay were serially diluted 10-fold, growth medium was removed from the cells, and the adhered cells were infected with the dilutions of the supernatants for 1 h. Methylcellulose was added and the cells were incubated for 3 days. Plaques were visualized by staining the cell monolayer with crystal violet. Relative inhibition was calculated using IDBS XLFIT analysis program.
as §2

[4] = Vero cells, MOI 0.01, 5 days, plaque assay with immunostaining, * = average of multiple data points
[5] = Vero cells, MOI 0.01, 4 days, plaque assay of supernatants, * = average of multiple data points

Structure (SMILES) | CC50 [2] [µM] | IC50 [3, 5] [µM] | also measured
CCCOCCCCCCN1C[C@H](O)[C@@H](O)[C@H](O)[C@H]1CO [UV-3, (2R,3R,4R,5S)-2-(hydroxymethyl)-1-(6-propoxyhexyl)piperidine-3,4,5-triol] |  |  | IC50 [1, 4]: > 100 µM
O=[N+]([O-])c1cc(NCCCCCCN2C[C@H](O)[C@@H](O)[C@H](O)[C@H]2CO)ccc1-n1cccn1 [Compound 13, (2R,3R,4R,5S)-2-(hydroxymethyl)-1-(6-((3-nitro-4-(1H-pyrazol-1-yl)phenyl)amino)hexyl)piperidine-3,4,5-triol] | > 1000 | > 100 | 
O=[N+]([O-])c1cc(-n2ncnn2)ccc1NCCCCCCN1C[C@H](O)[C@@H](O)[C@H](O)[C@H]1CO [Compound 6, (2R,3R,4R,5S)-2-(hydroxymethyl)-1-(6-((2-nitro-4-(2H-tetrazol-2-yl)phenyl)amino)hexyl)piperidine-3,4,5-triol] | 953 |  | 
CCCCN1C[C@H](O)[C@@H](O)[C@H](O)[C@H]1CO [UV-1, (2R,3R,4R,5S)-1-butyl-2-(hydroxymethyl)piperidine-3,4,5-triol] |  |  | IC50 [1, 4]: 3 µM
O=[N+]([O-])c1ccc(-n2cnnn2)cc1NCCCCCCN1C[C@H](O)[C@@H](O)[C@H](O)[C@H]1CO [Compound 9, (2R,3R,4R,5S)-2-(hydroxymethyl)-1-(6-((2-nitro-5-(1H-tetrazol-1-yl)phenyl)amino)hexyl)piperidine-3,4,5-triol] | > 1000 | > 100 | 
OC[C@@H]1[C@@H](O)[C@H](O)[C@@H](O)CN1CCCCCCNc1c(F)cc(F)cc1F [Compound 18, (2R,3R,4R,5S)-2-(hydroxymethyl)-1-(6-((2,4,6-trifluorophenyl)amino)hexyl)piperidine-3,4,5-triol trifluoroacetic acid] | 413 |  | IC50 ([3]; Vero): > 100 µM
O=[N+]([O-])c1cc(CN2CCCO2)ccc1NCCCCCCN1C[C@H](O)[C@@H](O)[C@H](O)[C@H]1CO [Compound 21, (2R,3R,4R,5S)-2-(hydroxymethyl)-1-(6-((4-(isoxazolidin-2-ylmethyl)-2-nitrophenyl)amino)hexyl)piperidine-3,4,5-triol] | 2130 | > 100 | 
O=[N+]([O-])c1cc(-c2ccccn2)ccc1NCCCCCCN1C[C@H](O)[C@@H](O)[C@H](O)[C@H]1CO [Compound 22, (2R,3R,4R,5S)-2-(hydroxymethyl)-1-(6-((2-nitro-4-(pyridin-2-yl)phenyl)amino)hexyl)piperidine-3,4,5-triol] | 99.8 | 47 | IC50 (summary in words) [3]: low micromolar activity
OC[C@@H]1[C@@H](O)[C@H](O)[C@@H](O)CN1CCCCCCNc1ncc2[nH]cnc2n1 [Compound 20, (2R,3R,4R,5S)-1-(6-((7H-purin-2-yl)amino)hexyl)-2-(hydroxymethyl)piperidine-3,4,5-triol] | 832 |  | IC50 [1, 4]: > 100 µM
N/C(=N/O)c1ccc(NCCCCCCN2C[C@H](O)[C@@H](O)[C@H](O)[C@H]2CO)c([N+](=O)[O-])c1 [Compound 4, (E)-N′-hydroxy-3-nitro-4-((6-((2R,3R,4R,5S)-3,4,5-trihydroxy-2-(hydroxymethyl)piperidin-1-yl)hexyl)amino)benzimidamide] | > 1000 | 77.1 | 
O=[N+]([O-])c1cc(NCCCCCCN2C[C@H](O)[C@@H](O)[C@H](O)[C@H]2CO)ccc1-n1cnnn1 [Compound 14, (2R,3R,4R,5S)-2-(hydroxymethyl)-1-(6-((3-nitro-4-(1H-tetrazol-1-yl)phenyl)amino)hexyl)piperidine-3,4,5-triol] | > 1000 | 88.5 | 
OC[C@@H]1[C@@H](O)[C@H](O)[C@@H](O)CN1CCCCCCNc1ccc(-n2ncnn2)cc1 [Compound 19, (2R,3R,4R,5S)-1-(6-((4-(2H-tetrazol-2-yl)phenyl)amino)hexyl)-2-(hydroxymethyl)piperidine-3,4,5-triol] | 953 | 140 | 
O=[N+]([O-])c1cc(-c2ncccn2)ccc1NCCCCCCN1C[C@H](O)[C@@H](O)[C@H](O)[C@H]1CO [Compound 7, (2R,3R,4R,5S)-2-(hydroxymethyl)-1-(6-((2-nitro-4-(pyrimidin-2-yl)phenyl)amino)hexyl)piperidine-3,4,5-triol] | > 1000 | 18.9 | IC50 (summary in words) [3]: low micromolar activity
CCCCCCCCCN1C[C@H](O)[C@@H](O)[C@H](O)[C@H]1CO [UV-2, (2R,3R,4R,5S)-2-(hydroxymethyl)-1-nonylpiperidine-3,4,5-triol] |  |  | IC50 ([1]; Vero): 95 µM
O=[N+]([O-])c1cc(-n2nccn2)ccc1NCCCCCCN1C[C@H](O)[C@@H](O)[C@H](O)[C@H]1CO [Compound 3, (2R,3R,4R,5S)-2-(hydroxymethyl)-1-(6-((2-nitro-4-(2H-1,2,3-triazol-2-yl)phenyl)amino)hexyl)piperidine-3,4,5-triol] | 245 | 106 | 
O=[N+]([O-])c1ccc(N2CCNCC2)cc1NCCCCCCN1C[C@H](O)[C@@H](O)[C@H](O)[C@H]1CO [Compound 10, (2R,3R,4R,5S)-2-(hydroxymethyl)-1-(6-((2-nitro-5-(piperazin-1-yl)phenyl)amino)hexyl)piperidine-3,4,5-triol] | > 1000 | > 100 | 
O=[N+]([O-])c1cc(-c2cccnn2)ccc1NCCCCCCN1C[C@H](O)[C@@H](O)[C@H](O)[C@H]1CO [Compound 23, (2R,3R,4R,5S)-2-(hydroxymethyl)-1-(6-((2-nitro-4-(pyridazin-3-yl)phenyl)amino)hexyl)piperidine-3,4,5-triol] | 5190 | > 100 | 
O=[N+]([O-])c1cc(-n2cnnn2)ccc1NCCCCCCN1C[C@H](O)[C@@H](O)[C@H](O)[C@H]1CO [Compound 5, (2R,3R,4R,5S)-2-(hydroxymethyl)-1-(6-((2-nitro-4-(1H-tetrazol-1-yl)phenyl)amino)hexyl)piperidine-3,4,5-triol] | > 1000 | 69.3 | 
O=[N+]([O-])c1cc(-c2ccncn2)ccc1NCCCCCCN1C[C@H](O)[C@@H](O)[C@H](O)[C@H]1CO [Compound 24, (2R,3R,4R,5S)-2-(hydroxymethyl)-1-(6-((2-nitro-4-(pyrimidin-4-yl)phenyl)amino)hexyl)piperidine-3,4,5-triol] | 816 | > 100 | 
[N-]=[N+]=Nc1ccc(NCCCCN2C[C@H](O)[C@@H](O)[C@H](O)[C@H]2CO)c([N+](=O)[O-])c1 [Compound 17, (2R,3R,4R,5S)-1-(4-((4-azido-2-nitrophenyl)amino)butyl)-2-(hydroxymethyl)piperidine-3,4,5-triol] | 350 | 30.4 | IC50 (summary in words) [3]: low micromolar activity
O=[N+]([O-])c1cc(-c2cccnc2)ccc1NCCCCCCN1C[C@H](O)[C@@H](O)[C@H](O)[C@H]1CO [Compound 25, (2R,3R,4R,5S)-2-(hydroxymethyl)-1-(6-((2-nitro-4-(pyridin-3-yl)phenyl)amino)hexyl)piperidine-3,4,5-triol] | 101 | 17 | IC50 (summary in words) [3]: low micromolar activity
CN(C)Cc1ccc([N+](=O)[O-])c(NCCCCCCN2C[C@H](O)[C@@H](O)[C@H](O)[C@H]2CO)c1 [Compound 16, (2R,3R,4R,5S)-1-(6-((5-((dimethylamino)methyl)-2-nitrophenyl)amino)hexyl)-2-(hydroxymethyl)piperidine-3,4,5-triol] | > 1000 | > 100 | 
